According to PubChem BioAssay (NCI):
Where “and” joins values, the source holds several entries; their conditions need not be identical. Equal entries are not always repeated.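 Each compound was tested at five concentrations against cells in 96-well plates for 48 hours. GI50 marks 50% less growth. The concentration for full growth arrest is given as TGI.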

Tests used:
Experiment in all cases: NCI anticancer screen, dose series, 48 h
IGROV1 ovarian = system: IGROV1 ovarian
SNB-19 CNS = system: SNB-19 CNS
LOX IMVI melanoma = system: LOX IMVI melanoma
HT29 colon = system: HT29 colon
M14 melanoma = system: M14 melanoma
MDA-MB-435 = system: MDA-MB-435
HCC-2998 colon = system: HCC-2998 colon
OVCAR-5 ovarian = system: OVCAR-5 ovarian
MALME-3M melanoma = system: MALME-3M melanoma
TK-10 renal = system: TK-10 renal

Row | SMILES | GI50 (IGROV1 ovarian) | TGI (IGROV1 ovarian) | GI50 (SNB-19 CNS) | TGI (SNB-19 CNS) | GI50 (LOX IMVI melanoma) | TGI (LOX IMVI melanoma) | GI50 (HT29 colon) | TGI (HT29 colon) | GI50 (M14 melanoma) | TGI (M14 melanoma) | GI50 (MDA-MB-435) | TGI (MDA-MB-435) | GI50 (HCC-2998 colon) | TGI (HCC-2998 colon) | GI50 (OVCAR-5 ovarian) | TGI (OVCAR-5 ovarian) | GI50 (MALME-3M melanoma) | TGI (MALME-3M melanoma) | GI50 (TK-10 renal) | TGI (TK-10 renal)
1 | CCN(CC)c1nc(-c2ccc(Cl)cc2Cl)nc2ccccc12 | 25.9 µM | > 100 µM | 40.8 µM | > 100 µM | 17.1 µM | 36 µM | 37.6 µM | > 100 µM | 18 µM | 37.9 µM | 18.7 µM | 48.3 µM | 16.7 µM | 31.7 µM | 26.1 µM | > 68.1 µM | 18.9 µM | 49.7 µM | 23.8 µM | 63.3 µM
2 | N=c1ccn2c(n1)OC1C(O)C(CO)OC12 (centres undefined) | 4.02 µM | > 1000 µM |  | > 480 µM | 0.497 µM | 98.9 µM and > 100 µM | 6.23 µM | > 1000 µM | 0.228 µM |  | 2.59 µM | > 1000 µM | 0.0303 µM |  |  | 380 µM and > 100 µM | 4.22 µM | 78.5 µM and > 100 µM |  | > 1000 µM
3 | CC(C)=CCc1cc(O)cc2c1OC(C=C(C)C)C1=C2C(=O)C2=C(NCCS2(=O)=O)C1=O (centres undefined) | 2.15 µM | 5.43 µM | 2.25 µM | 4.44 µM | 2.04 µM | 5 µM | 1.95 µM | 7.24 µM | 0.646 µM | 2.69 µM | 0.315 µM | 0.634 µM | 2.63 µM | 5.19 µM | 3.72 µM | 7.01 µM | 0.159 µM | 0.834 µM | 5.51 µM | 16.2 µM
4 | Cn1cnc([N+](=O)[O-])c1S(=O)(=O)Oc1ccccc1 | 2.21 µM | 4.76 µM | > 100 µM | > 100 µM | 3.3 µM | 9.9 µM | 3.14 µM | 8.21 µM | 11.1 µM | 27.3 µM | 9.84 µM | 31.9 µM | 19.3 µM | 40.7 µM | 23.9 µM | 74.9 µM | 2.14 µM | 4.32 µM | 1.99 µM | 3.81 µM
5 | Oc1cc(O)c2c(c1)OC(c1ccc(O)c(O)c1)C(OC1(c3cc(O)c(O)c(O)c3)Oc3cc(O)cc(O)c3C(O)C1O)C2 (centres undefined) |  | > 86.2 µM |  | > 100 µM |  | 38.4 µM |  | 41 µM |  | > 65.6 µM |  | 37.6 µM |  | > 100 µM |  | 59.3 µM |  | > 100 µM |  | > 100 µM
6 | C=CC(=O)N1CCC(C2CCNc3c(C(N)=O)c(-c4ccc(Oc5ccccc5)cc4)nn32)CC1 (centres undefined) | 0.796 µM | 16.9 µM | 14.4 µM | > 100 µM | 13.3 µM | 29.4 µM | 16.6 µM | 55.8 µM | 15.4 µM | 33.1 µM | 13.4 µM | 38 µM | 14.8 µM | 28.6 µM | 31.2 µM | > 100 µM | 14 µM | 34.6 µM | 1.29 µM | 11.6 µM
7 | CC1(C)OCCn2c1nc1c(N3CCOCC3)nc(-c3cnc(N)nc3)nc12 | 0.0622 µM | 0.432 µM | 1.01 µM | > 30.2 µM | 0.265 µM | > 27.4 µM | 0.23 µM | > 100 µM | 0.316 µM | > 100 µM | 0.27 µM |  | 0.412 µM | > 100 µM | 0.249 µM | > 100 µM | 0.0974 µM | 0.6 µM | 0.109 µM | 0.676 µM
8 | C=CCCCCCCCCCCC1(O)C=CC2=[N+](CCCCCN=C(N)N)CCCN21 (centres undefined) | 10.9 µM | 30.1 µM | 5.86 µM | 30.4 µM | 6.3 µM | 26 µM | 3.87 µM | 22.7 µM | 22.8 µM | > 51.5 µM | 12.3 µM | 31.1 µM | 2.66 µM | 24.6 µM | 6.25 µM | 20.8 µM | 2.52 µM | 10.9 µM | 1.33 µM | 4.56 µM
9 | Cc1nc2ccccc2nc1-c1ccc(N=[N+]([O-])c2ccc(-c3nc4ccccc4nc3C)cc2)cc1 |  | > 100 µM |  | > 100 µM |  | > 100 µM |  | > 100 µM |  | > 100 µM |  | > 100 µM |  | > 100 µM |  | > 100 µM |  | > 100 µM |  | 50.5 µM
10 | CCOc1ccc2nc(S/C(=C/C=C(C#N)C#N)c3ccc(C)cc3)sc2c1 | 54.5 µM | > 100 µM | > 100 µM | > 100 µM | 9.87 µM | 23.9 µM | 4.71 µM | > 100 µM | 35.8 µM | > 100 µM | 20.7 µM | 59.4 µM | 25.1 µM | 53.6 µM | 57.5 µM | > 100 µM | 33 µM | > 100 µM | 27.2 µM | 94.6 µM
11 | CCCCCCNC(=O)c1nc(-c2ccccc2)oc1Cc1ccc(OP(=O)(O)O)cc1 | 15.2 µM | 31.2 µM | 22 µM | > 100 µM | 16.4 µM | 30.2 µM | 19.5 µM | 37.8 µM | 18 µM | 35.5 µM | 16.4 µM | 30.5 µM | 18.2 µM | 33.4 µM | 14.6 µM | 28.5 µM | 19.3 µM | 37 µM | 16.9 µM | 32.9 µM
